Experimental data published in US20220233563A1, “Methods of Treatments Based Upon Anthracycline Responsiveness” (The Board of Trustees of the Leland Stanford Junior …, priority 2019, published 2022).

What was measured:
[1] = test system: HCC1954 breast cancer cell line; test: Cell viability after drug treatment of HCC1954 cells with inducible shRNA knockdown of KAT6B; assay type: cell-based; settings: three inducible shRNA constructs against KAT6B in HCC1954; FIG. 31
Protocol: A similar experiment was performed by knocking down KAT6B expression to evaluate the role of KAT6B expression in anthracycline sensitivity. Three inducible shRNA knockdown constructs were used to lower the levels of KAT6B protein in the HCC1954 breast cancer cell line.

[2] = test system: HCC1954 breast cancer cell line; test: Cell viability after drug treatment of HCC1954 cells with inducible shRNA knockdown of KDM4B; assay type: cell-based; settings: KDM4B knocked down four days, then drug for three days; normalized to DMSO vehicle-only controls; FIG. 26
Protocol: To functionally evaluate the role of KDM4B expression in anthracycline sensitivity, three inducible shRNA knockdown constructs were used to lower the levels of KDM4B protein in the HCC1954 breast cancer cell line (FIG. 24). […] The expression KDM4B was knocked down for four days, and then the cells were treated with either doxorubicin, etoposide (a non-anthracycline TOP2 inhibitor) or paclitaxel (a taxane commonly used to treat breast cancer that functions via tubulin inhibition) for three days, after which cell viability was measured (FIG. 25). All experiments were normalized to DMSO vehicle-only controls and were performed under both induced and non-induced conditions.

[3] = test system: HCC1954 breast cancer cell line; settings: unmodified HCC1954, ER-/HER2+, not TOP2A amplified; cited from earlier work

| Structure (SMILES) | change in drug sensitivity (cell viability) upon knockdown of KAT6B [1] | change in drug sensitivity (cell viability) upon knockdown of KDM4B [2] | doxorubicin sensitivity of the HCC1954 cell line [3] |
| --- | --- | --- | --- |
| COc1cc([C@@H]2c3cc4c(cc3[C@@H](O[C@@H]3O[C@@H]5CO[C@@H](C)O[C@H]5[C@H](O)[C@H]3O)[C@H]3COC(=O)[C@H]23)OCO4)cc(OC)c1O [etoposide] | induced resistance | induced resistance | – |
| COc1cccc2c1C(=O)c1c(O)c3c(c(O)c1C2=O)C[C@@](O)(C(=O)CO)C[C@@H]3O[C@H]1C[C@H](N)[C@H](O)[C@H](C)O1 [doxorubicin] | induced resistance | induced resistance | doxorubicin-sensitive |
| CC(=O)O[C@H]1C(=O)[C@@]2(C)[C@H]([C@H](OC(=O)c3ccccc3)[C@]3(O)C[C@H](OC(=O)[C@H](O)[C@@H](NC(=O)c4ccccc4)c4ccccc4)C(C)=C1C3(C)C)[C@]1(OC(C)=O)CO[C@@H]1C[C@@H]2O [paclitaxel] | remained sensitive | remained sensitive | – |
